The values below come from PubChem BioAssay (NCI).

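Cells were grown in 96-well plates and exposed to each compound for 48 hours at five concentrations; endpoints were interpolated linearly between bracketing concentrations, or set to the highest concentration if not reached. Here, GI50 denotes the concentration required for 50% inhibition of growth. TGI: concentration producing complete growth inhibition.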 Where only a bound is given, the exact number is not on record here.

The TGI is the concentration at which net growth stops. Read a low TGI as more potent growth arrest. As usually defined, the GI50 is the concentration giving 50% growth inhibition.

Test systems include SF-295 CNS; MALME-3M melanoma; OVCAR-5 ovarian; SK-MEL-28 melanoma; NCI-H23 lung; HCT-116 colon; SW-620 colon; NCI-H226 lung; ACHN renal; SR leukemia.
What all share (test): DTP human tumour cell line panel, 48 h

Regarding `CC(=O)NNc1nc(C)c(C(=O)NNC(=O)C(=O)Nc2ccc(C)c(C)c2)s1`, the TGI in the assay on SF-295 CNS, with MALME-3M melanoma, with OVCAR-5 ovarian, in the assay with SK-MEL-28 melanoma, with NCI-H23 lung and with HCT-116 colon was > 100 µM each time. Besides, the TGI with SW-620 colon, in the assay on NCI-H226 lung, in the assay with ACHN renal and in the assay on SR leukemia was > 100 µM each time.
Consider `O=c1[nH]c(=S)[nH]c2c1sc(=S)n2-c1ccccc1`, for which the TGI in the assay with SF-295 CNS, with MALME-3M melanoma, in the assay with OVCAR-5 ovarian, in the assay on SK-MEL-28 melanoma, with NCI-H23 lung and in the assay on HCT-116 colon was > 100 µM throughout. Moreover, the TGI with SW-620 colon, in the assay on NCI-H226 lung, in the assay on ACHN renal and with SR leukemia was > 100 µM throughout.
Regarding `COc1cc(CNC(=O)/C=C/C=C/c2ccc3c(c2)OCO3)ccc1OCc1cn(-c2ccc(Cl)c(Cl)c2)nn1`, the GI50 is 1.85 µM in the assay on SF-295 CNS; 0.476 µM in the assay on MALME-3M melanoma; 1.77 µM in the assay on OVCAR-5 ovarian; 1.67 µM in the assay with SK-MEL-28 melanoma; 0.588 µM with NCI-H23 lung; 1.22 µM in the assay on HCT-116 colon. The GI50 in the assay with SW-620 colon was 0.362 µM; in the assay on NCI-H226 lung, 1.74 µM; in the assay with ACHN renal, 0.504 µM; in the assay on SR leukemia it was 2.8 µM. Besides, the concentration for total growth inhibition (TGI) with SF-295 CNS is 4.19 µM; in the assay on MALME-3M melanoma, 1.92 µM; with OVCAR-5 ovarian, 3.99 µM; in the assay with SK-MEL-28 melanoma, 3.46 µM; in the assay with NCI-H23 lung, 2.34 µM; with HCT-116 colon it was 2.84 µM. The concentration for total growth inhibition (TGI) in the assay with SW-620 colon is 1.55 µM; with NCI-H226 lung, 4.31 µM; with ACHN renal it was 1.77 µM; in the assay with SR leukemia it was 19.1 µM.
Take `Cc1c2ccccc2c(C)c2c3c(ccc12)C(=O)C=CC3=O`: the TGI is > 31.6 µM with SF-295 CNS; > 79.2 µM in the assay on MALME-3M melanoma; > 100 µM in the assay on OVCAR-5 ovarian; > 57.1 µM in the assay with SK-MEL-28 melanoma; > 85.4 µM with NCI-H23 lung; 49.7 µM with HCT-116 colon. For the same compound, the TGI in the assay on SW-620 colon was 47 µM; with NCI-H226 lung, > 100 µM; with ACHN renal it was 33.3 µM; with SR leukemia it was 25.2 µM.
Turning to `CCCNc1nc(N(C)O)nc(N(C)O)n1`, the GI50 is 2.36 µM in the assay on SF-295 CNS; 2.96 µM with MALME-3M melanoma; 6.09 µM in the assay with OVCAR-5 ovarian; 2.64 µM in the assay with SK-MEL-28 melanoma; 4.73 µM with NCI-H23 lung; 1.63 µM with HCT-116 colon. Also, the GI50 with SW-620 colon is 3.46 µM; with NCI-H226 lung it was 6.49 µM; with ACHN renal, 1.03 µM; in the assay with SR leukemia, 0.149 µM. Moreover, the TGI in the assay with SF-295 CNS was > 56.2 µM; in the assay on MALME-3M melanoma it was 32.5 µM; in the assay on OVCAR-5 ovarian, > 100 µM; with SK-MEL-28 melanoma, > 91 µM; in the assay on NCI-H23 lung, > 100 µM; in the assay with HCT-116 colon it was > 53.8 µM. Moreover, the TGI in the assay on SW-620 colon is > 100 µM; in the assay on NCI-H226 lung it was > 93.6 µM; in the assay on ACHN renal it was > 100 µM; with SR leukemia, > 30.1 µM.
Take `COc1ccc(CN2c3ccccc3Sc3ccccc32)cc1F`: the GI50 in the assay with SF-295 CNS was 0.323 µM; with MALME-3M melanoma it was > 100 µM; in the assay with OVCAR-5 ovarian, > 30.4 µM; in the assay on SK-MEL-28 melanoma, > 55 µM; with NCI-H23 lung it was 0.682 µM; in the assay on HCT-116 colon, 0.437 µM. For the same compound, the GI50 in the assay on SW-620 colon is 0.398 µM; with NCI-H226 lung, > 47.1 µM; in the assay on ACHN renal it was 1.25 µM; in the assay with SR leukemia, 0.36 µM. Also, the TGI in the assay on SF-295 CNS was > 48.4 µM; in the assay on MALME-3M melanoma, > 100 µM; in the assay with OVCAR-5 ovarian, > 100 µM; in the assay with SK-MEL-28 melanoma, > 100 µM; in the assay with NCI-H23 lung it was > 100 µM; in the assay on HCT-116 colon it was > 100 µM. The TGI is > 100 µM in the assay with SW-620 colon, > 100 µM with NCI-H226 lung, > 100 µM in the assay on ACHN renal and > 42.7 µM with SR leukemia.
For `CC1C2Cc3ccc(O)cc3C1(C)CCN2C` (stereo not given), the TGI in the assay with SF-295 CNS, in the assay with MALME-3M melanoma, with OVCAR-5 ovarian, in the assay on SK-MEL-28 melanoma, in the assay on NCI-H23 lung and with HCT-116 colon was > 100 µM each time. Also, the TGI in the assay on SW-620 colon, with NCI-H226 lung, with ACHN renal and with SR leukemia was > 100 µM throughout.
Regarding `CCN1CCC[C@H]1c1cc(O)c2c(c1OC)C[C@H]1C[C@H]3[C@H](N)C(=O)C(C(N)=O)=C(O)[C@@]3(O)C(=O)C1=C2O`, the GI50 in the assay with SF-295 CNS is 0.208 µM; in the assay on MALME-3M melanoma it was 0.0423 µM; with OVCAR-5 ovarian it was 0.187 µM; with SK-MEL-28 melanoma it was 0.0668 µM; in the assay with NCI-H23 lung, 0.167 µM; in the assay with HCT-116 colon, 0.0456 µM. Further, the concentration for 50% growth inhibition (GI50) with SW-620 colon is 0.0536 µM; in the assay with NCI-H226 lung it was 0.216 µM; in the assay on ACHN renal, 0.0517 µM; in the assay on SR leukemia, 0.0436 µM. The TGI with SF-295 CNS came out at 3.8 µM; in the assay with MALME-3M melanoma, 0.689 µM; with OVCAR-5 ovarian it was 4.12 µM; in the assay with SK-MEL-28 melanoma, 1.26 µM; in the assay on NCI-H23 lung it was 2.18 µM; in the assay with HCT-116 colon it was 1.96 µM. The TGI in the assay on SW-620 colon amounted to 3.24 µM; in the assay on NCI-H226 lung, 3.96 µM; in the assay with ACHN renal it was 0.802 µM; in the assay on SR leukemia it was 0.94 µM.
